ChEMBL document CHEMBL4118183, “Lipophilic methylene blue analogues enhance mitochondrial function and increase frataxin levels in a cellular model of Friedreich's ataxia” (Bioorg Med Chem, 2018)
The source made the active and inactive calls. The rule behind the calls is not given here.

How the values were obtained:
Homo sapiens [1] = species: Homo sapiens; test: (§1) Cytoprotective activity against BSO-treated human Friedreich's ataxia fibroblasts assessed as increase in cell viability incubated overnight followed by BSO addition measured after 48 hrs by calceinAM ester/ethidium homodimer-1 staining based flow cytometry; type: functional
[2] = Cytotoxicity against human Friedreich's ataxia lymphocytes assessed as cell viability by measuring live cells at 250 nM after 24 hrs by calceinAM ester/ethidium homodimer-1 staining based flow cytometry (reference value: 88.2%); parameters: species or system Friedreich's ataxia lymphocyte; details: read-out: Activity
[3] = Cytotoxicity against human Friedreich's ataxia lymphocytes assessed as cell viability by measuring live cells at 2500 nM after 24 hrs by calceinAM ester/ethidium homodimer-1 staining based flow cytometry (reference value: 88.2%); parameters: species or system Friedreich's ataxia lymphocyte; details: read-out: Activity
[4] = tested on: Friedreich's ataxia lymphocyte; test: Increase in total ATP levels in human Friedreich's ataxia lymphocytes at 0.5 to 2.5 uM after 24 hrs by bioluminescence assay; type: functional, cell-based
[5] = tested on: Friedreich's ataxia lymphocyte; test: Restoration of total aconitase activity in FRDA patient derived Friedreich's ataxia lymphocytes at 50 to 250 nM after 5 days by colorimetric assay; type: functional, cell-based; details: Homo sapiens
[6] = tested on: Friedreich's ataxia lymphocyte; test: Increase in total ATP levels in human Friedreich's ataxia lymphocytes at 100 nM after 24 hrs by bioluminescence assay; type: functional, cell-based
Mus musculus = species: Mus musculus; test: Substrate activity at NADH-ubiquinone oxidoreductase in mouse liver mitochondrial membrane fractions assessed as induction of electron flow from complex-1 by measuring NADH oxidation at 5 uM after 5 mins in presence of complex 1 blocker rotenone at 0.1 uM using NADH and coenzyme Q1; type: cell membranes
[7] = tested on: Friedreich's ataxia lymphocyte; test: Cytoprotective activity against rotenone-induced cytotoxicity in human Friedreich's ataxia lymphocytes assessed as increase in cell viability at 250 to 2500 nM preincubated for 12 hrs followed by complex 1 inhibitor rotenone addition measured after 16 hrs by calceinAM ester/ethidium homodimer-1 staining based flow cytometry; type: functional
[8] = Cytotoxicity against human Friedreich's ataxia lymphocytes assessed as cell viability by measuring live cells at 2500 nM after 48 hrs by calceinAM ester/ethidium homodimer-1 staining based flow cytometry (reference value: 89.3%); parameters: species or system Friedreich's ataxia lymphocyte; details: read-out: Activity
[9] = Cytotoxicity against human Friedreich's ataxia lymphocytes assessed as cell viability by measuring live cells at 250 nM after 48 hrs by calceinAM ester/ethidium homodimer-1 staining based flow cytometry (reference value: 89.3%); parameters: species or system Friedreich's ataxia lymphocyte; details: read-out: Activity
[10] = tested on: Friedreich's ataxia lymphocyte; test: Inhibition of DEM-induced ROS production in human Friedreich's ataxia lymphocytes incubated for 16 hrs followed by DEM treatment for 80 mins by DCFH-DA dye based flow cytometry; type: functional, cell-based
[11] = tested on: Friedreich's ataxia lymphocyte; test: (§2) Increase in frataxin protein expression levels in FRDA patient derived Friedreich's ataxia lymphocytes at 250 nM after 24 to 48 hrs by ELISA; type: functional; details: Homo sapiens
[12] = as §1; type: functional
[13] = Induction of inner mitochondrial membrane potential depolarization in human Friedreich's ataxia lymphocytes assessed as JC-1 aggregates at 250 nM after 16 hrs by JC1-staining based flow cytometry (reference value: 83%); type: functional, Friedreich's ataxia lymphocyte
[14] = Induction of inner mitochondrial membrane potential depolarization in human Friedreich's ataxia lymphocytes assessed as JC-1 monomers at 2500 nM after 16 hrs by JC1-staining based flow cytometry (reference value: 17.3%); type: functional, Friedreich's ataxia lymphocyte
[15] = tested on: Friedreich's ataxia lymphocyte; test: (§3) Induction of mitochondrial biogenesis in FRDA patient derived Friedreich's ataxia lymphocytes assessed as increase in COX-1/SDH-A protein levels at 250 nM after 24 to 48 hrs by ELISA; type: functional; details: Homo sapiens
[16] = Cytotoxicity against human Friedreich's ataxia lymphocytes assessed as cell viability by measuring dead cells at 2500 nM after 24 hrs by calceinAM ester/ethidium homodimer-1 staining based flow cytometry (reference value: 11.2%); details: friedreich's ataxia lymphocyte, 2.5 µM
[17] = Induction of inner mitochondrial membrane potential depolarization in human Friedreich's ataxia lymphocytes assessed as JC-1 monomers at 250 nM after 16 hrs by JC1-staining based flow cytometry (reference value: 17.3%); type: functional, Friedreich's ataxia lymphocyte
[18] = Induction of inner mitochondrial membrane potential depolarization in human Friedreich's ataxia lymphocytes assessed as JC-1 aggregates at 2500 nM after 16 hrs by JC1-staining based flow cytometry (reference value: 83%); type: functional, Friedreich's ataxia lymphocyte
[19] = Cytotoxicity against human Friedreich's ataxia lymphocytes assessed as cell viability by measuring dead cells at 250 nM after 48 hrs by calceinAM ester/ethidium homodimer-1 staining based flow cytometry (reference value: 10.6%); details: friedreich's ataxia lymphocyte, 0.25 µM
[20] = tested on: Friedreich's ataxia lymphocyte; test: Inhibition of DEM-induced ROS production in human Friedreich's ataxia lymphocytes at 250 to 2500 nM incubated for 16 hrs followed by DEM treatment for 80 mins by DCFH-DA dye based flow cytometry; type: functional, cell-based
[21] = Cytotoxicity against human Friedreich's ataxia lymphocytes assessed as cell viability by measuring dead cells at 2500 nM after 48 hrs by calceinAM ester/ethidium homodimer-1 staining based flow cytometry (reference value: 10.6%); details: friedreich's ataxia lymphocyte, 2.5 µM
[22] = tested on: Friedreich's ataxia lymphocyte; test: Increase in total ATP levels in human Friedreich's ataxia lymphocytes at 2.5 uM after 24 hrs by bioluminescence assay; type: functional, cell-based
[23] = tested on: Friedreich's ataxia lymphocyte; test: Increase in total ATP levels in human Friedreich's ataxia lymphocytes at 0.1 to 0.5 uM after 24 hrs by bioluminescence assay; type: functional, cell-based
[24] = Cytotoxicity against human Friedreich's ataxia lymphocytes assessed as cell viability by measuring dead cells at 250 nM after 24 hrs by calceinAM ester/ethidium homodimer-1 staining based flow cytometry (reference value: 11.2%); details: friedreich's ataxia lymphocyte, 0.25 µM
[25] = as §2; type: functional, Homo sapiens, Friedreich's ataxia lymphocyte
[26] = Increase in frataxin protein expression levels in FRDA patient derived Friedreich's ataxia lymphocytes at 50 nM after 24 to 48 hrs by ELISA relative to control; type: functional, Homo sapiens, Friedreich's ataxia lymphocyte
[27] = as §3; type: functional, Homo sapiens, Friedreich's ataxia lymphocyte
[28] = Induction of mitochondrial biogenesis in FRDA patient derived Friedreich's ataxia lymphocytes assessed as increase in COX-1/SDH-A protein levels at 50 nM after 24 to 48 hrs by ELISA relative to control; type: functional, Homo sapiens, Friedreich's ataxia lymphocyte
Homo sapiens [29] = species: Homo sapiens; test: Cytoprotective activity against BSO-treated human Friedreich's ataxia fibroblasts assessed as increase in cell viability at 25 to 50 nM incubated overnight followed by BSO addition measured after 48 hrs by calceinAM ester/ethidium homodimer-1 staining based flow cytometry; type: functional
[30] = tested on: Friedreich's ataxia lymphocyte; test: Increase in total ATP levels in human Friedreich's ataxia lymphocytes at 0.1 uM after 24 hrs by bioluminescence assay; type: functional, cell-based

| SMILES | Activity (Homo sapiens [1]) | viability at 24 h, 0.25 µM [2] [%] | viability at 24 h, 2.5 µM [3] [%] | Activity [4] | Activity [6] | Activity [7] | viability at 48 h, 2.5 µM [8] [%] | viability at 48 h, 0.25 µM [9] [%] | inhibition [10] | Activity [11] | EC50 [12] [nM] | Activity [13] [%] | Activity [14] [%] | Activity [15] | Activity [16] [%] | Activity [17] [%] | Activity [18] [%] | Activity [19] [%] | Activity [21] [%] | Activity [24] [%] | further results |
| --- | --- | --- | --- | --- | --- | --- | --- | --- | --- | --- | --- | --- | --- | --- | --- | --- | --- | --- | --- | --- | --- |
| CN(C)c1ccc2nc3ccc(=[N+](C)C)cc-3sc2c1 [METHYLENE BLUE ANHYDROUS] | Dose-dependent effect | 85.4 | 60.2 | inactive | inactive | Active | 15.4 | 77.5 | Dose-dependent effect |  |  |  |  |  |  |  |  |  |  |  | Activity [5]: Active; Activity (Mus musculus): Active |
| CCCCCCCCCCCCCCCCCc1cc2nc3ccc(N4CCOCC4)cc3sc-2cc1=[N+]1CCOCC1.[I-] | Dose-dependent effect | 91.3 | 87.9 |  |  | Active | 79 | 87.4 |  | inactive | 52 | 84.2 | 20.7 | inactive | 12 | 16 | 79.8 | 12.4 | 20.8 | 8.6 | inhibition [20]: Active; Activity [22]: inactive; Activity [23]: Active |
| CN(C)c1ccc2nc3ccc(N(C)C)cc3[s+]c2c1.[Cl-] [METHYLENE BLUE ANHYDROUS] |  |  |  |  |  |  |  |  |  |  | 75 | 80.3 | 51.2 |  | 39.6 | 20.2 | 49 | 22.5 | 84.3 | 14.3 | Activity [25]: >=15%; Activity [26]: >=10%; Activity [27]: >=20%; Activity [28]: >=15% |
| CCCCCCCCCCCCCc1cc2nc3ccc(N(C)C)cc3sc-2cc1=[N+](C)C.[I-] | Dose-dependent effect | 89.3 | 41.3 | inactive | inactive | Active | 21.6 | 86.7 | Dose-dependent effect |  | 37 | 82.8 | 72.2 |  | 58.5 | 17.6 | 30.6 | 13.1 | 78 | 10.3 | Activity [25]: >=15%; Activity [27]: >=20%; Activity (Homo sapiens [29]): Active |
| CCCCCCCCCCCc1cc2nc3ccc(N(C)C)cc3sc-2cc1=[N+](C)C.[I-] | Dose-dependent effect | 89.5 | 45.1 | inactive | inactive | Active | 16.2 | 85.7 | Dose-dependent effect | inactive | 35 | 82.9 | 46.9 | inactive | 54.7 | 17.4 | 54.8 | 14.2 | 83.5 | 10.2 | Activity [26]: >=10%; Activity (Homo sapiens [29]): Active; Activity [28]: >=15% |
| CCCCCc1cc2nc3ccc(N(C)C)cc3sc-2cc1=[N+](C)C.[I-] | Dose-dependent effect | 82.6 | 37.5 | inactive | inactive | Active | 4.4 | 78.7 |  |  | 66 | 83.5 | 70.9 |  | 62.4 | 16.9 | 31.4 | 21 | 95.2 | 17.2 | Activity [25]: >=15%; Activity [27]: >=20%; Activity (Mus musculus): Active; inhibition [20]: Active |
| CCCCCCCCCCCCCCCCc1cc2nc3ccc(N(C)C)cc3sc-2cc1=[N+](C)C.[I-] | Dose-dependent effect | 91.4 | 87 |  |  | Active | 81.2 | 89.4 | Dose-dependent effect | inactive | 29 | 82.1 | 23.3 | inactive | 13 | 18.2 | 77 | 10.5 | 18.6 | 8.4 | Activity [26]: >=10%; Activity (Homo sapiens [29]): Active; Activity [5]: Active; Activity (Mus musculus): Active; Activity [22]: inactive; Activity [28]: >=15%; Activity [23]: Active |
| CCCCCCCCCCCCCCCCCc1cc2nc3ccc(N(C)C)cc3sc-2cc1=[N+](C)C.[I-] | Dose-dependent effect | 91 | 89.2 |  |  | Active | 86.2 | 87.7 |  | inactive | 48 | 85.3 | 23.4 | inactive | 10.5 | 15.2 | 77.1 | 12.2 | 13.5 | 8.8 | inhibition [20]: Active; Activity [22]: inactive; Activity [23]: Active |
| CCCCCCCCCCCCCCCc1cc2nc3ccc(N(C)C)cc3sc-2cc1=[N+](C)C.[I-] | Dose-dependent effect | 89.4 | 78.2 | inactive |  | Active | 68.7 | 85.4 | Dose-dependent effect | inactive | 31 | 86.2 | 28.4 | inactive | 21.4 | 14.2 | 73 | 14.5 | 31.2 | 10.3 | Activity [26]: >=10%; Activity [30]: Active; Activity (Homo sapiens [29]): Active; Activity [28]: >=15% |
